Reference: patent publication US10745399B2 (priority 2015, dated 2020)
Like-named read-outs stand apart in the source and are kept apart here.

Key:
human recombinant ATM = human recombinant ATM (Homo sapiens (Human), UniProt Q13315); test: ATM kinase assay (IC50 ATM), TR-FRET; type: biochemical
Experimental: ATM Kinase Assay—Determination of ATM Inhibition (IC50 ATM):
The IC50 value was determined with the aid of a biochemical ATM kinase assay. The assay consists of two steps: the enzymatic reaction and the detection step. Firstly, ATM (ataxia telangiectasia mutated) protein and the test substance are incubated at different concentrations with addition of substrate protein p53 and ATP. ATM mediates the phosphorylation of p53 at several positions, including at amino acid S15. The amount of phosphorylated p53 is determined with the aid of specific antibodies and the TR-FRET technique. The enzymatic ATM assay is carried out as TR-FRET (HTRF™, Cisbio Bioassays) based 384-well assay. In the first step, purified human recombinant ATM (human ATM, full length, GenBank ID NM_000051, expressed in a mammal cell line) is incubated in assay buffer for 15 minutes with the ATM inhibitor in various concentrations and without test substance as negative or neutral control. The assay buffer comprises 25 mM HEPES pH 8.0, 10 mM Mg(CH3COO)2, 1 mM MnCl2, 0.1% BSA and 0.01% Brij® 35, 5 mM dithiothreitol (DTT). […] In the second step, purified human recombinant cmyc-labelled p53 (human p53, full length, GenBank ID BC003596, expressed in Sf21 insect cells) and ATP are added, and the reaction mixture is incubated at 22° C. for 30-35 minutes. The pharmacologically relevant assay volume is 5 μl. […] The enzymatic reaction is stopped by addition of EDTA. […] After incubation, usually for 2 hours (between 1.5 and 15 h), for signal development, the plates are analysed in a plate reader (EnVision, PerkinElmer) using TRF mode (and with laser excitation). […] The measurement data were processed by means of Genedata Screener software. IC50 determinations are carried out, in particular, by fitting a dose/action curve to the data points by means of nonlinear regression analysis.

PI3K (p120γ) (human) = PI3K (p120γ) (human) (Homo sapiens (Human), UniProt P48736); test: PI3K (p120γ) (human), non-radioactive assay (HTRF); type: biochemical; conditions: read-out: IC50 (PI3Kgamma)
Experimental: The reaction was initiated by addition of MgATP solution. After an incubation time of 30 min at room temperature, the reaction was stopped by addition of a solution consisting of EDTA and biotinylated phosphatidylinositol 3,4,5-trisphosphate. Finally, the detection buffer, consisting of a europium-labelled anti-GST monoclonal antibody, a GST-labelled GRP1 PH domain and streptavidin allophycocyanin, was added.

mTOR (human) = mTOR (human) (Homo sapiens (Human), UniProt P42345); test: mTOR (human) radiometric kinase assay; type: biochemical; conditions: for ratio IC50 (ATM):IC50(mTOR), selectivity with respect to mTOR: IC50 (ATM) at least 2000 times higher compared with IC50 (mTOR)
Experimental: mTOR (human) was incubated with 50 mM HEPES pH 7.5, 1 mM EGTA, 0.01% Tween 20, 2 mg/ml of the substrate, 3 mM MnCl2 and [γ-^33P-ATP] (specific activity approximately 500 cpm/pmol, concentration as necessary). The reaction was initiated by addition of MgATP solution. After incubation at room temperature for 40 minutes, the reaction was stopped by addition of 3% phosphoric acid. 10 μl of the reaction solution were then transferred dropwise onto a P30 filtermat and washed three times for 5 min in 75 mM phosphoric acid and once in methanol, dried and evaluated by means of liquid scintillation counting.

[1] = system: CHK2 phosphorylation (phospho-Thr68) in HCT116 cells; test: Cellular pCHK2 assay, bleomycin-induced phosphorylation of CHK2 (phospho-Thr68), immunofluorescence high content; type: cell-based; conditions: Homo sapiens, read-out: IC50 (pCHK2)
From the text: For the identification of substances which inhibit the phosphorylation of the protein kinase CHK2 at the amino acid threonine 68, an immunofluorescence-based “high content” analysis assay was used in HCT116 cells.
In vitro cell-based immunofluorescence assay for the identification of inhibitors of bleomycin-induced phosphorylation of CHK2 (phospho-Thr68) in the human colon carcinoma cell line HCT116:
HCT116 cells are sown out in a defined cell density in 384-well plates in culture medium (DMEM high glucose, 2 mM GlutaMax, 1 mM Na pyruvate, 10% FCS) and incubated overnight at 37° C. and 10% of CO2. On the following day, the test substances are added in a defined concentration range (1 nM to 30 μM) in combination with 10 μM bleomycin, where the concentration of the solvent DMSO is kept constant at 0.5%. After incubation for four hours at 37° C. and 10% of CO2, the cells are fixed (5 min, 4% formaldehyde in PBS), permeabilised (10 min, 0.2% Triton X-100 in PBS) and, after blocking of nonspecific binding sites (10% goat serum, 1% BSA in PBS), incubated overnight at 4° C. with a specific anti-pCHK2 antibody (cell signalling #2661). pCHK2 (Thr68) is determined using an Alexa488-labelled secondary anti-rabbit IgG antibody. Parallel staining of DNA with propidium iodide enables determination of the cell count. The pCHK2 signal is detected using a high-content imager (Molecular Devices IMX Ultra) and automatic image analysis using the MetaXpress software belonging to the instrument. The number of cell nuclei which have a pCHK2 signal above a defined background is determined.

PI3K p110β/p85α (human) = PI3K p110β/p85α (human) (Homo sapiens (Human), UniProt P42338); test: PI3K p110β/p85α (human), non-radioactive assay (HTRF); type: biochemical
Sequence of PI3K p110β/p85α (human) (P42338 whole entry): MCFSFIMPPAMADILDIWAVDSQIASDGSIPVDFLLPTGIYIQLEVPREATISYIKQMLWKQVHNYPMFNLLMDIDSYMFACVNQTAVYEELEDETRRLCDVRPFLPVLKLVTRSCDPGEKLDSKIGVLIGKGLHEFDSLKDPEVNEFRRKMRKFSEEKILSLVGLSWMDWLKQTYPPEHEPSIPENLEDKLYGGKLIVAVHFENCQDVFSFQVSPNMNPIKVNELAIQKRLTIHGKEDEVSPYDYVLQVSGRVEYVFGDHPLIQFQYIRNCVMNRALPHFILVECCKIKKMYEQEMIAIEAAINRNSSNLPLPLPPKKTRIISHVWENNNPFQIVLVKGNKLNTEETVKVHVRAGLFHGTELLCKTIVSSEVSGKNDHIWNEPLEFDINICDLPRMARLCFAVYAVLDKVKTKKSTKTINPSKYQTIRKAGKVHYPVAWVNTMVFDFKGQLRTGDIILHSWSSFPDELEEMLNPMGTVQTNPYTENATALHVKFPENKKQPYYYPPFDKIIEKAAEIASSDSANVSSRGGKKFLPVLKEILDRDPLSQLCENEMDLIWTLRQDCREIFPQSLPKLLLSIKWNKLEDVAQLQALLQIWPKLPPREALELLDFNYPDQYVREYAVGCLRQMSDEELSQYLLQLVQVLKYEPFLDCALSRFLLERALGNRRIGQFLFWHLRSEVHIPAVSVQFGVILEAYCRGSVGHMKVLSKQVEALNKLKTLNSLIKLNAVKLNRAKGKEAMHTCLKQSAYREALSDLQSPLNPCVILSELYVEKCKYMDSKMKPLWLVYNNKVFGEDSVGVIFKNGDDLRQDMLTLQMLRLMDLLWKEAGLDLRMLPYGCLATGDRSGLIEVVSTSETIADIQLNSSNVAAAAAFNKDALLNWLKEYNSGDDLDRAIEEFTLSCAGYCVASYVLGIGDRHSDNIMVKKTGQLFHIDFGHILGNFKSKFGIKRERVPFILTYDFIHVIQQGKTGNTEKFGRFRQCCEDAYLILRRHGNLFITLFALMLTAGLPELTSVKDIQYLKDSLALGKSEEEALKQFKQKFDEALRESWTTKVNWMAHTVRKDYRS
Sequence of PI3K p110β/p85α (human) (P27986 whole entry partner): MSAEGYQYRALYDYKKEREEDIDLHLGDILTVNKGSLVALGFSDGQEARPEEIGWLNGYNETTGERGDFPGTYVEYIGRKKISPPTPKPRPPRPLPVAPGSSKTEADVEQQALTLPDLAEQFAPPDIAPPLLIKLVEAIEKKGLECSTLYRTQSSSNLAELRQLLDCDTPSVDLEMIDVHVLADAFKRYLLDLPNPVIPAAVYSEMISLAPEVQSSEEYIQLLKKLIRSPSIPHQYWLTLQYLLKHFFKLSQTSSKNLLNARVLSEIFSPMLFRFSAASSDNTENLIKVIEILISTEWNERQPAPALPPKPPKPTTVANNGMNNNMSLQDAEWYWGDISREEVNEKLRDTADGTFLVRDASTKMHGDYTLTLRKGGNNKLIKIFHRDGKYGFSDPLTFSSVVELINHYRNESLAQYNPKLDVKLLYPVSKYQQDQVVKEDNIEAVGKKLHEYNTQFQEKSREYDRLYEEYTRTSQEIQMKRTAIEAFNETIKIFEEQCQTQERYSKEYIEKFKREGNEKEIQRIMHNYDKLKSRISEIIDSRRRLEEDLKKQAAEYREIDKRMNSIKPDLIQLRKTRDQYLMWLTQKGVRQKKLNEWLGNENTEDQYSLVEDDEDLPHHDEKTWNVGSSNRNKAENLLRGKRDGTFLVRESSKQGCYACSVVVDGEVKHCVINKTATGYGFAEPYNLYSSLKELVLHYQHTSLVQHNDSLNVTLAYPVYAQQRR
Experimental: PI3K p110β/p85a (Human), Non-Radioactive Assay
(§1) PI3K p110β/p85α (human) was incubated in an assay buffer comprising 10 μM phosphatidylinositol 4,5-bisphosphate and MgATP (concentration as necessary). The reaction was initiated by addition of MgATP solution. After an incubation time of 30 min at room temperature, the reaction was stopped by addition of a solution consisting of EDTA and biotinylated phosphatidylinositol 3,4,5-trisphosphate. Finally, the detection buffer, consisting of a europium-labelled anti-GST monoclonal antibody, a GST-labelled GRP1 PH domain and streptavidin allophycocyanin, was added. The plate was read out via homogeneous time-resolved fluorescence (HTRF) and the corresponding signals were evaluated via the formula HTRF=10000×(Em665 nm/Em620 nm).

PI3K p110δ/p85α (human) = PI3K p110δ/p85α (human) (Homo sapiens (Human), UniProt O00329); test: PI3K p110δ/p85α (human), non-radioactive assay (HTRF); type: biochemical; conditions: read-out: IC50 (PI3Kdelta)
Experimental: as §1, with “The” for “PI3K p110β/p85α (human) was incubated in an assay buffer comprising 10 μM phosphatidylinositol 4,5-bisphosphate and MgATP (concentration as necessary). The”

PI3K p110α/p85α (human) = PI3K p110α/p85α (human) (Homo sapiens (Human), UniProt P42336); test: PI3K p110α/p85α (human), non-radioactive assay (HTRF); type: biochemical; conditions: read-out: IC50 (PI3Kalpha)
Experimental: as §1, with “The” for “PI3K p110β/p85α (human) was incubated in an assay buffer comprising 10 μM phosphatidylinositol 4,5-bisphosphate and MgATP (concentration as necessary). The”, “After” for “After an”, “incubation” for “incubation time of 30 min”, “temperature for 40 minutes,” for “temperature,”

[2] = HCT-116, HCT116 cells, 10 μM bleomycin, 4 h

Sequence of human recombinant ATM (Q13315 whole entry): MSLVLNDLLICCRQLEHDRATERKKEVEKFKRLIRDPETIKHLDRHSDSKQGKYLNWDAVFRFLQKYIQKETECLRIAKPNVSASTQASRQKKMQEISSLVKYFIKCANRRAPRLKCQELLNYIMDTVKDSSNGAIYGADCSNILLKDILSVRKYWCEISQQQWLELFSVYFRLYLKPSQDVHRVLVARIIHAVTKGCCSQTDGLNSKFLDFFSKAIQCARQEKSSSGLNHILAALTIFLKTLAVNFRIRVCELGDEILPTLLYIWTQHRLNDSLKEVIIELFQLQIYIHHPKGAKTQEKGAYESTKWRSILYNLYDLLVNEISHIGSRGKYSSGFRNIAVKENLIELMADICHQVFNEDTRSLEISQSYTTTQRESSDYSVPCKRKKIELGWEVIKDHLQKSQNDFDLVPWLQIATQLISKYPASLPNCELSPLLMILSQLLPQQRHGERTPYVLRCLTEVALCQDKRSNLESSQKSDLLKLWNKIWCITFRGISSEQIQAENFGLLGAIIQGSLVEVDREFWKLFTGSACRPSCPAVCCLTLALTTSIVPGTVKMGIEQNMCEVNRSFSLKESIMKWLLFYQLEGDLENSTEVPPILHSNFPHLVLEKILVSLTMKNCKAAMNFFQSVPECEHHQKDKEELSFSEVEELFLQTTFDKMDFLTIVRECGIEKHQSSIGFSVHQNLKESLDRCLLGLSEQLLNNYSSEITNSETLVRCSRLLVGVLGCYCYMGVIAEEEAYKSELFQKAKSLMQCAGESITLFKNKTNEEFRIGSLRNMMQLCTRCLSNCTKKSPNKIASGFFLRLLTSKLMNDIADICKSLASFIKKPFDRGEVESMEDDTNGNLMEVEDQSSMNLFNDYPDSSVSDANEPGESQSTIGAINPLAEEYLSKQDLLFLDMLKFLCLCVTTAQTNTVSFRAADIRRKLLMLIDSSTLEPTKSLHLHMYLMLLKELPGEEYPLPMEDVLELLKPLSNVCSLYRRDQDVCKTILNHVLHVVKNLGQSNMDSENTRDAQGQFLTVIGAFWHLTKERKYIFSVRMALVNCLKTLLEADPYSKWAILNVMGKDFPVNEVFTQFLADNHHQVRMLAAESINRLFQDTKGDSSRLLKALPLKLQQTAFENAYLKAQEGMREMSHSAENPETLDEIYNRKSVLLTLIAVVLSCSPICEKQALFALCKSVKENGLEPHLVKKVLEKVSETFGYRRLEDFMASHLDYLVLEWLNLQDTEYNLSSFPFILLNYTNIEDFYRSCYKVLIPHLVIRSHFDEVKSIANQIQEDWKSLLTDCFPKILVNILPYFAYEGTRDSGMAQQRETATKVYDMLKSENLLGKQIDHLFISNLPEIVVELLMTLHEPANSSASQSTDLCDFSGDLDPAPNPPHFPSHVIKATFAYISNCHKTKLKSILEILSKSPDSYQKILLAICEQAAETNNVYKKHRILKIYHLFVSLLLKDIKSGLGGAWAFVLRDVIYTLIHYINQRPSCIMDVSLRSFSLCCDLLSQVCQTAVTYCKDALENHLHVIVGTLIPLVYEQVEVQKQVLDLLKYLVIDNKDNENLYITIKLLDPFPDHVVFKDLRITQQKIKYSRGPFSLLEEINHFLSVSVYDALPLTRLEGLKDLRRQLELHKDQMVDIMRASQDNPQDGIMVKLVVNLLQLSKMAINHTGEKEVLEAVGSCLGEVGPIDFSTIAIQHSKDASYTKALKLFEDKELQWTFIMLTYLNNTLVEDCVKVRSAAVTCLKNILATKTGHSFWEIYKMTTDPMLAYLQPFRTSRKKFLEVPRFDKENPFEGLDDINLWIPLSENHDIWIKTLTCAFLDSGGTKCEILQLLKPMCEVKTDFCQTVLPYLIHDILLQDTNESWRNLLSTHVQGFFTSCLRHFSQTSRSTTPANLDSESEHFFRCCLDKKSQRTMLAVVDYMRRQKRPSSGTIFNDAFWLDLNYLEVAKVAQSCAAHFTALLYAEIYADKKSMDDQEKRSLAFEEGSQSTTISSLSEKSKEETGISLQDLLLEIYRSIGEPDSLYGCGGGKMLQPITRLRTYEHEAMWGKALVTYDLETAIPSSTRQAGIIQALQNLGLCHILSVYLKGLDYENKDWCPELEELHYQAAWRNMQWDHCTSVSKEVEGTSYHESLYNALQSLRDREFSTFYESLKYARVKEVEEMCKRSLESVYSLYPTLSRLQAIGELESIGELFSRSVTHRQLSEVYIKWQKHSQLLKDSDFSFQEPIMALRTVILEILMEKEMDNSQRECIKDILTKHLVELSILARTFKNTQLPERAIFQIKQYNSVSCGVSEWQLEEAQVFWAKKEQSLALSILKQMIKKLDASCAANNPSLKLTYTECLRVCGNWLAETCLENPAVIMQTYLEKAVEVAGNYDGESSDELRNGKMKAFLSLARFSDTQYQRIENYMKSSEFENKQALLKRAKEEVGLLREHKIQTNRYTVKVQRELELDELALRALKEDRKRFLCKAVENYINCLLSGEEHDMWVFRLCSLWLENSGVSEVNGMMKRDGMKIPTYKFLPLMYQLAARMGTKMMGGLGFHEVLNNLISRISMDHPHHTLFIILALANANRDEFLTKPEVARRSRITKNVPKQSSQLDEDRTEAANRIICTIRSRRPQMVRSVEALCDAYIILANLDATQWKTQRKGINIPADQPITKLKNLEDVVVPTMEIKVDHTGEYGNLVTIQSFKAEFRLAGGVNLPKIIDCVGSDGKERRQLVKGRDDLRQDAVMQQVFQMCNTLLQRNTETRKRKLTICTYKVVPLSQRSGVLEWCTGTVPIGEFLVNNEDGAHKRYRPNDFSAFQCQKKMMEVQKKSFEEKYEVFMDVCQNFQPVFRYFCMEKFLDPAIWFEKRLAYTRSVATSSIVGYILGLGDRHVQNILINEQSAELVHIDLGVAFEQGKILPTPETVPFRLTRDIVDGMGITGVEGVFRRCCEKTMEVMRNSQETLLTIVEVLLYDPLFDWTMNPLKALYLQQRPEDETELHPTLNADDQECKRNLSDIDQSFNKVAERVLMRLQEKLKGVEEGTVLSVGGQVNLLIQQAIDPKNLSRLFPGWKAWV

COc1cc2ncc3c(c2cc1-c1cnn(C)c1)n(-c1ncc(OCCO)cc1F)c(=O)n3C [compound 67, 1-[3-Fluoro-5-(2-hydroxy-ethoxy)-2-pyridyl]-7-methoxy-3-methyl-8-(1-methylpyrazol-4-yl)imidazo-[4,5-c]quinolin-2-one]
IC50 (human recombinant ATM; 10 μM ATP, p53 substrate): < 1 nM

CCn1cc(-c2cc3c(cc2OC)ncc2c3n(-c3c(F)cncc3OC)c(=O)n2C)cn1 [Example 13]
IC50 (PI3K (p120γ) (human)): > 30 µM
IC50 (mTOR (human)): > 10 µM
IC50 ([1]; HCT-116, 4 h): < 200 nM
IC50 (human recombinant ATM): < 1 nM
IC50 (human recombinant ATM; 10 μM ATP, p53 substrate): < 1 nM
IC50 (PI3K p110β/p85α (human); read-out: IC50 (PI3Kbeta)): > 30 µM
IC50 (PI3K p110δ/p85α (human)): > 10 µM
IC50 (PI3K p110α/p85α (human)): > 5 µM

COc1ccc(-c2cc3c(cc2OC)ncc2c3n(-c3c(F)cncc3OC)c(=O)n2C)cn1 [compound 137, 1-(3-Fluoro-5-methoxy-pyridin-4-yl)-7-methoxy-8-(6-methoxypyridin-3-yl)-3-methyl-1,3-dihydroimidazo-[4,5-c]quinolin-2-one]
IC50 [1, 2]: 200 to 1000 nM
ratio IC50 (ATM):IC50(PI3Kbeta), selectivity with respect to PI3Kbeta (PI3K p110β/p85α (human); IC50 (ATM) at least 2000 times higher compared with IC50 (PI3Kbeta)): at least 2000 times

COc1cc2ncc3c(c2cc1-c1cnn(C)c1)n(-c1ncc(F)cc1F)c(=O)n3C [Compound Example 1, 1-(3,5-Difluoropyridin-2-yl)-7-methoxy-3-methyl-8-(1-methyl-1H-pyrazol-4-yl)-1,3-dihydroimidazo[4,5-c] quinolin-2-one]
IC50 (human recombinant ATM; 10 μM ATP, p53 substrate): < 1 nM

COc1cc2ncc3c(c2cc1-c1cnn(C)n1)n(-c1c(C)cncc1F)c(=O)n3C [compound 103, 1-(3-Fluoro-5-methylpyridin-4-yl)-7-methoxy-3-methyl-8-(2-methyl-2H-1,2,3-triazol-4-yl)-1,3-dihydroimidazo-[4,5-c]quinolin-2-one]
IC50 [1, 2]: 200 to 1000 nM
IC50 (human recombinant ATM; 10 μM ATP, p53 substrate): < 50 nM

COc1cnc(-n2c(=O)n(C)c3cnc4cc(OC)c(-c5c[nH]nc5C)cc4c32)c(F)c1 [compound 122, 1-(3-Fluoro-5-methoxy-pyridin-2-yl)-7-methoxy-3-methyl-8-(3-methyl-1H-pyrazol-4-yl)-1,3-dihydro-imidazo[4,5-c]quinolin-2-one]
ratio IC50 (ATM):IC50(mTOR), selectivity with respect to mTOR (mTOR (human)): at least 2000 times

COc1cc2ncc3c(c2cc1-c1cnn(C)c1)n(-c1ncc(OC(F)F)cc1F)c(=O)n3C [compound 114, 1-(5-Difluoromethoxy-3-fluoropyridin-2-yl)-7-methoxy-3-methyl-8-(1-methyl-1H-pyrazol-4-yl)-1,3-dihydroimidazo[4,5-c]-quinolin-2-one]
ratio IC50 (ATM):IC50(mTOR), selectivity with respect to mTOR (mTOR (human)): at least 2000 times
